Experimental data: the supplement of paper PMC10307832

What was measured:
Assay in all cases: relative viability (nuclei count vs DMSO), 5 days (fraction); higher = more cells survive
[1] = compound: CC(C)C[C@H](NC(=O)[C@H](CCc1ccccc1)NC(=O)CN1CCOCC1)C(=O)N[C@@H](Cc1ccccc1)C(=O)N[C@@H](CC(C)C)C(=O)[C@@]1(C)CO1 [Carfilzomib] + C[C@]1(O)C[C@@H](c2nc(-c3ccc4ccc(-c5ccccc5)nc4c3)c3c(N)nccn32)C1 [Linsitinib] (partner 1 µM)
In short: (§1)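 Relative viability equals treated-well nuclei counts divided by vehicle-well nuclei counts. Counts came from 4× images of lung cancer cell lines grown in 1536-well plates for 5 days after pin-tool dosing on the day after seeding. Dosing used one drug alone or a fixed anchor-drug dose plus five library-drug doses (not always all listed) in √10 steps, and values are medians of duplicate plates.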

[2] = compound: C[C@@H](Oc1cc(-c2cnn(C3CCNCC3)c2)cnc1N)c1c(Cl)ccc(F)c1Cl [Crizotinib] + C[C@]1(O)C[C@@H](c2nc(-c3ccc4ccc(-c5ccccc5)nc4c3)c3c(N)nccn32)C1 [Linsitinib] (partner 1 µM)
In short: as §1

[3] = compound: C[C@@H](Oc1cc(-c2cnn(C3CCNCC3)c2)cnc1N)c1c(Cl)ccc(F)c1Cl [Crizotinib] + Nc1ncn([C@H]2C[C@H](O)[C@@H](CO)O2)c(=O)n1 [Decitabine] (partner 2 µM)
In short: as §1

[4] = compound: O=C(c1cc(Cc2n[nH]c(=O)c3ccccc23)ccc1F)N1CCN(C(=O)C2CC2)CC1 [Olaparib] + Cc1nc(NC(=O)N2CCC[C@H]2C(N)=O)sc1-c1ccnc(C(C)(C)C(F)(F)F)c1 [Alpelisib] (partner 2 µM)
In short: as §1

Cell Line: LU99A
- relative viability ([1]; first compound 0.001 µM): 0.547
- relative viability ([1]; first compound 0.003162 µM): 0.514
- relative viability ([1]; first compound 0.01 µM): 0.508
- relative viability ([1]; first compound 0.03162 µM): 0.225
- relative viability ([1]; first compound 0.1 µM): 0.159
- relative viability ([2]; first compound 0.01 µM): 0.477
- relative viability ([2]; first compound 0.03162 µM): 0.541
- relative viability ([2]; first compound 0.1 µM): 0.528
- relative viability ([2]; first compound 0.3162 µM): 0.486
- relative viability ([2]; first compound 1 µM): 0.579
- relative viability ([3]; first compound 0.01 µM): 0.823
- relative viability ([3]; first compound 0.03162 µM): 0.803
- relative viability ([3]; first compound 0.1 µM): 0.872
- relative viability ([3]; first compound 0.3162 µM): 0.784
- relative viability ([4]; first compound 0.08 µM): 0.608
- relative viability ([4]; first compound 0.253 µM): 0.487
- relative viability ([4]; first compound 2.53 µM): 0.471
- relative viability ([4]; first compound 8 µM): 0.422

Cell Line: NCI-H1944
- relative viability ([1]; first compound 0.001 µM): 1.14
- relative viability ([1]; first compound 0.003162 µM): 1.24
- relative viability ([1]; first compound 0.01 µM): 1.17
- relative viability ([1]; first compound 0.03162 µM): 1.2
- relative viability ([1]; first compound 0.1 µM): 0.489
- relative viability ([2]; first compound 0.01 µM): 1.11
- relative viability ([2]; first compound 0.03162 µM): 1.07
- relative viability ([2]; first compound 0.1 µM): 1.2
- relative viability ([2]; first compound 0.3162 µM): 1.18
- relative viability ([2]; first compound 1 µM): 1.21
- relative viability ([3]; first compound 0.01 µM): 0.387
- relative viability ([3]; first compound 0.03162 µM): 0.412
- relative viability ([3]; first compound 0.1 µM): 0.463
- relative viability ([3]; first compound 0.3162 µM): 0.409
- relative viability ([3]; first compound 1 µM): 0.45
- relative viability ([4]; first compound 0.08 µM): 0.881
- relative viability ([4]; first compound 0.253 µM): 0.743
- relative viability ([4]; first compound 2.53 µM): 0.699
- relative viability ([4]; first compound 8 µM): 0.717

Cell Line: NCI-H3122
- relative viability ([1]; first compound 0.001 µM): 0.958
- relative viability ([1]; first compound 0.003162 µM): 1.05
- relative viability ([1]; first compound 0.01 µM): 0.95
- relative viability ([1]; first compound 0.03162 µM): 1
- relative viability ([1]; first compound 0.1 µM): 0.806
- relative viability ([2]; first compound 0.01 µM): 1.02
- relative viability ([2]; first compound 0.03162 µM): 1.03
- relative viability ([2]; first compound 0.1 µM): 1.08
- relative viability ([2]; first compound 0.3162 µM): 1.01
- relative viability ([2]; first compound 1 µM): 1
- relative viability ([3]; first compound 0.01 µM): 0.316
- relative viability ([3]; first compound 0.03162 µM): 0.408
- relative viability ([3]; first compound 0.1 µM): 0.456
- relative viability ([3]; first compound 0.3162 µM): 0.409
- relative viability ([3]; first compound 1 µM): 0.453
- relative viability ([4]; first compound 0.08 µM): 0.7
- relative viability ([4]; first compound 0.253 µM): 0.638
- relative viability ([4]; first compound 2.53 µM): 0.867
- relative viability ([4]; first compound 8 µM): 0.668

Cell Line: LCLC-97TM1
- relative viability ([1]; first compound 0.001 µM): 0.205
- relative viability ([1]; first compound 0.003162 µM): 0.178
- relative viability ([1]; first compound 0.01 µM): 0.207
- relative viability ([1]; first compound 0.03162 µM): 0.119
- relative viability ([1]; first compound 0.1 µM): 0.127
- relative viability ([2]; first compound 0.01 µM): 0.17
- relative viability ([2]; first compound 0.03162 µM): 0.195
- relative viability ([2]; first compound 0.1 µM): 0.177
- relative viability ([2]; first compound 0.3162 µM): 0.19
- relative viability ([2]; first compound 1 µM): 0.168
- relative viability ([3]; first compound 0.01 µM): 0.214
- relative viability ([3]; first compound 0.03162 µM): 0.235
- relative viability ([3]; first compound 0.1 µM): 0.212
- relative viability ([3]; first compound 0.3162 µM): 0.248
- relative viability ([3]; first compound 1 µM): 0.303
- relative viability ([4]; first compound 0.08 µM): 0.256
- relative viability ([4]; first compound 0.253 µM): 0.219
- relative viability ([4]; first compound 2.53 µM): 0.271
- relative viability ([4]; first compound 8 µM): 0.19

Cell Line: LXF-289
- relative viability ([1]; first compound 0.001 µM): 1
- relative viability ([1]; first compound 0.003162 µM): 1.03
- relative viability ([1]; first compound 0.01 µM): 0.982
- relative viability ([1]; first compound 0.03162 µM): 0.097
- relative viability ([1]; first compound 0.1 µM): 0.083
- relative viability ([2]; first compound 0.01 µM): 0.91
- relative viability ([2]; first compound 0.03162 µM): 0.972
- relative viability ([2]; first compound 0.1 µM): 0.983
- relative viability ([2]; first compound 0.3162 µM): 0.906
- relative viability ([2]; first compound 1 µM): 0.937
- relative viability ([3]; first compound 0.01 µM): 0.325
- relative viability ([3]; first compound 0.03162 µM): 0.394
- relative viability ([3]; first compound 0.1 µM): 0.402
- relative viability ([3]; first compound 0.3162 µM): 0.344
- relative viability ([3]; first compound 1 µM): 0.398
- relative viability ([4]; first compound 0.08 µM): 1.16
- relative viability ([4]; first compound 0.253 µM): 1.02
- relative viability ([4]; first compound 2.53 µM): 1.07
- relative viability ([4]; first compound 8 µM): 1.03

Cell Line: HCC-78
- relative viability ([1]; first compound 0.001 µM): 0.554
- relative viability ([1]; first compound 0.003162 µM): 0.585
- relative viability ([1]; first compound 0.01 µM): 0.545
- relative viability ([1]; first compound 0.03162 µM): 0.385
- relative viability ([1]; first compound 0.1 µM): 0.214
- relative viability ([2]; first compound 0.01 µM): 0.489
- relative viability ([2]; first compound 0.03162 µM): 0.529
- relative viability ([2]; first compound 0.1 µM): 0.459
- relative viability ([2]; first compound 0.3162 µM): 0.433
- relative viability ([2]; first compound 1 µM): 0.372
- relative viability ([3]; first compound 0.01 µM): 0.754
- relative viability ([3]; first compound 0.03162 µM): 0.759
- relative viability ([3]; first compound 0.1 µM): 0.669
- relative viability ([3]; first compound 0.3162 µM): 0.593
- relative viability ([3]; first compound 1 µM): 0.661
- relative viability ([4]; first compound 0.08 µM): 0.424
- relative viability ([4]; first compound 0.253 µM): 0.328
- relative viability ([4]; first compound 2.53 µM): 0.445
- relative viability ([4]; first compound 8 µM): 0.365

Cell Line: NCI-H2405
- relative viability ([1]; first compound 0.003162 µM): 1.19
- relative viability ([1]; first compound 0.01 µM): 1.01
- relative viability ([1]; first compound 0.03162 µM): 0.389
- relative viability ([1]; first compound 0.1 µM): 0.16
- relative viability ([2]; first compound 0.01 µM): 0.885
- relative viability ([2]; first compound 0.03162 µM): 0.897
- relative viability ([2]; first compound 0.1 µM): 0.882
- relative viability ([2]; first compound 0.3162 µM): 1.04
- relative viability ([2]; first compound 1 µM): 0.919
- relative viability ([3]; first compound 0.01 µM): 0.717
- relative viability ([3]; first compound 0.03162 µM): 0.698
- relative viability ([3]; first compound 0.1 µM): 0.717
- relative viability ([3]; first compound 0.3162 µM): 0.727
- relative viability ([3]; first compound 1 µM): 0.734
- relative viability ([4]; first compound 0.08 µM): 1.01
- relative viability ([4]; first compound 0.253 µM): 0.816
- relative viability ([4]; first compound 2.53 µM): 0.728
- relative viability ([4]; first compound 8 µM): 0.73

Cell Line: NCI-H727
- relative viability ([1]; first compound 0.001 µM): 0.406
- relative viability ([1]; first compound 0.003162 µM): 0.249
- relative viability ([1]; first compound 0.01 µM): 0.301
- relative viability ([1]; first compound 0.03162 µM): 0.431
- relative viability ([1]; first compound 0.1 µM): 0.117
- relative viability ([2]; first compound 0.01 µM): 0.305
- relative viability ([2]; first compound 0.03162 µM): 0.282
- relative viability ([2]; first compound 0.1 µM): 0.261
- relative viability ([2]; first compound 0.3162 µM): 0.271
- relative viability ([2]; first compound 1 µM): 0.409
- relative viability ([3]; first compound 0.01 µM): 0.763
- relative viability ([3]; first compound 0.03162 µM): 0.769
- relative viability ([3]; first compound 0.1 µM): 0.836
- relative viability ([3]; first compound 0.3162 µM): 0.763
- relative viability ([3]; first compound 1 µM): 0.796
- relative viability ([4]; first compound 0.08 µM): 0.607
- relative viability ([4]; first compound 0.253 µM): 0.527
- relative viability ([4]; first compound 2.53 µM): 0.597
- relative viability ([4]; first compound 8 µM): 0.332

Cell Line: LC-2-ad
- relative viability ([1]; first compound 0.001 µM): 0.879
- relative viability ([1]; first compound 0.003162 µM): 0.907
- relative viability ([1]; first compound 0.01 µM): 0.907
- relative viability ([1]; first compound 0.03162 µM): 0.462
- relative viability ([1]; first compound 0.1 µM): 0.151
- relative viability ([2]; first compound 0.01 µM): 0.872
- relative viability ([2]; first compound 0.03162 µM): 0.879
- relative viability ([2]; first compound 0.1 µM): 0.762
- relative viability ([2]; first compound 1 µM): 0.852
- relative viability ([3]; first compound 0.01 µM): 0.846
- relative viability ([3]; first compound 0.03162 µM): 0.896
- relative viability ([3]; first compound 0.1 µM): 0.809
- relative viability ([3]; first compound 1 µM): 0.81
- relative viability ([4]; first compound 0.08 µM): 0.893
- relative viability ([4]; first compound 0.253 µM): 0.746
- relative viability ([4]; first compound 2.53 µM): 0.863
- relative viability ([4]; first compound 8 µM): 0.695
